Measured values from patent US20070154567A1, “Use of mercury to treat cancer” (priority 2006, published 2007).

Tested on: non-operable neck tumor of unknown origin and metastasis in the lungs
Assay: Oral inorganic mercury (II) treatment of a pet English Setter: blood data and clinical follow-up
Format: in vivo, dog
Set-up: Anion Gap / MCV / MCH / MCHC / Neutrophils, absolute / Lymphocytes, absolute / Monocytes, absolute / Eosinophils, absolute: unit not given here
Procedure: A 10 years old female English Setter was diagnosed with a non-operable neck tumor of unknown origin and metastasis in the lungs.
The dog completed 130-day inorganic mercury (II) treatment that consisted of 58 days of the first treatment course followed by 20 days of an interval period, and the 52-day second treatment course. The formulation contained 1 mM mercury acetate in 20 mM sodium acetate buffer, pH 4.5, with 100 mM sucrose and 150 mM sodium chloride additives. It was introduced orally to the dog three times a day at 0.5 micromole Hg^2+/kg/day. At the start of the treatment, the dog was in poor health condition: was easily tired, had difficulty to swallow, heavy breathing due to lung metastasis. The tumor was easily palpated at the neck. […] These changes were correlated with reduction in ALP levels (Days 5, 22, 40, 65).
During the second treatment course the progression of the disease was slowed down, but not to the degree observed during the first treatment course. The treatment was stopped at Day 128, and the dog was euthanized 2-3 weeks later.

With CC(=O)[O-].CC(=O)[O-].[Hg+2] [inorganic mercury (II), mercury acetate] the Albumin (Day 65) was 3.5 g/dL, the “Albumin/Globulin Ratio” value (Day 65) was 1.5 and the “Alkaline Phosphatase (ALP)” value (Day 65) was 78 U/L. The Amylase (Day 65) was 431 U/L, the “Anion Gap” value (Day 65) was 27 and the BUN (Day 65) was 30 mg/dL. For the same compound, the “BUN/Creatinine Ratio” value (Day 65) was 30, the CPK (Day 65) was 120 U/L and the Calcium (Day 65) was 10.5 mg/dL. The Chloride (Day 65) was 109 mE/L, the Cholesterol (Day 65) was 169 mg/dL and the Creatinine (Day 65) was 1.0 mg/dL. The “Direct Billirubin” value (Day 65) was 0.1 mg/dL, the “Eosinophils, (%)” value (Day 65) was 1% and the “Eosinophils, absolute” value (Day 65) was 211. It also gave a GGT (Day 65) of 7 U/L, a Globulin (Day 65) of 2.4 g/dL and a Glucose (Day 65) of 94 mg/dL. The Hematocrit (Day 65) was 44.6%, the Hemoglobin (Day 65) was 14.3 g/dL and the “Indirect Billirubin” value (Day 65) was 0 mg/dL. For the same compound, the Lipase (Day 65) was 449 U/L, the “Lymphocytes, (%)” value (Day 65) was 61% and the “Lymphocytes, absolute” value (Day 65) was 12871. For the same compound, the MCH (Day 65) was 23.5, the MCHC (Day 65) was 32.1 and the MCV (Day 65) was 73. The Na/K ratio (Day 65) was 29, the “Neutrophils, (%)” value (Day 65) was 38% and the “Neutrophils, absolute” value (Day 65) was 8018. For the same compound, the Phosphorus (Day 65) was 4.4 mg/dL, the Platelet count (Day 65) was 404 10^3/microl and the Potassium (Day 65) was 5.2 mE/L. For the same compound, the RBC (Day 65) was 6.09 10^6/microl, the Sodium (Day 65) was 150 mE/L and the T4 (Day 65) was 1.6 µg/dL. For the same compound, the “Total Billirubin” value (Day 65) was 0.1 mg/dL, the “Total Protein” value (Day 65) was 5.9 g/dL and the WBC (Day 65) was 21.1 10^3/microl. The tCO2 (Day 65) was 19 mEq/L, the “ALT (SGPT)” value (Day 103) was 95 U/L and the “AST (SGOT)” value (Day 103) was 25 U/L. The Albumin (Day 103) was 3.2 g/dL, the “Albumin/Globulin Ratio” value (Day 103) was 1.3 and the “Alkaline Phosphatase (ALP)” value (Day 103) was 58 U/L. For the same compound, the Amylase (Day 103) was 745 U/L, the “Anion Gap” value (Day 103) was 27 and the BUN (Day 103) was 13 mg/dL. The “BUN/Creatinine Ratio” value (Day 103) was 16.3, the CPK (Day 103) was 103 U/L and the Calcium (Day 103) was 9.6 mg/dL. For the same compound, the Chloride (Day 103) was 107 mE/L, the Cholesterol (Day 103) was 146 mg/dL and the Creatinine (Day 103) was 0.8 mg/dL. For the same compound, the “Direct Billirubin” value (Day 103) was 0.1 mg/dL, the “Eosinophils, (%)” value (Day 103) was 1% and the “Eosinophils, absolute” value (Day 103) was 165. It also gave a GGT (Day 103) of 6 U/L, a Globulin (Day 103) of 2.4 g/dL and a Glucose (Day 103) of 107 mg/dL. For the same compound, the Hematocrit (Day 103) was 40.7%, the Hemoglobin (Day 103) was 13.4 g/dL and the “Indirect Billirubin” value (Day 103) was 0 mg/dL. The Lipase (Day 103) was 630 U/L, the “Lymphocytes, (%)” value (Day 103) was 71% and the “Lymphocytes, absolute” value (Day 103) was 11715. It also gave an MCH (Day 103) of 23.4, an MCHC (Day 103) of 32.9 and an MCV (Day 103) of 71. The “Monocytes, (%)” value (Day 103) was 7%, the “Monocytes, absolute” value (Day 103) was 1155 and the Na/K ratio (Day 103) was 28. The “Neutrophils, (%)” value (Day 103) was 20%, the “Neutrophils, absolute” value (Day 103) was 3300 and the Phosphorus (Day 103) was 3.7 mg/dL. For the same compound, the Platelet count (Day 103) was 409 10^3/microl, the Potassium (Day 103) was 5.2 mE/L and the RBC (Day 103) was 5.72 10^6/microl. For the same compound, the Sodium (Day 103) was 148 mE/L, the T4 (Day 103) was 1.4 µg/dL and the “Total Billirubin” value (Day 103) was 0.1 mg/dL. For the same compound, the “Total Protein” value (Day 103) was 5.6 g/dL, the WBC (Day 103) was 16.5 10^3/microl and the tCO2 (Day 103) was 19 mEq/L. For the same compound, the “ALT (SGPT)” value (Day 128) was 89 U/L, the “AST (SGOT)” value (Day 128) was 23 U/L and the Albumin (Day 128) was 3.0 g/dL. For the same compound, the “Albumin/Globulin Ratio” value (Day 128) was 1.2, the “Alkaline Phosphatase (ALP)” value (Day 128) was 45 U/L and the Amylase (Day 128) was 633 U/L. The “Anion Gap” value (Day 128) was 22, the BUN (Day 128) was 24 mg/dL and the “BUN/Creatinine Ratio” value (Day 128) was 30. For the same compound, the CPK (Day 128) was 53 U/L, the Calcium (Day 128) was 9.9 mg/dL and the Chloride (Day 128) was 116 mE/L. For the same compound, the Cholesterol (Day 128) was 133 mg/dL, the Creatinine (Day 128) was 0.8 mg/dL and the “Direct Billirubin” value (Day 128) was 0.1 mg/dL. For the same compound, the “Eosinophils, (%)” value (Day 128) was 2%, the “Eosinophils, absolute” value (Day 128) was 330 and the GGT (Day 128) was 13 U/L. For the same compound, the Globulin (Day 128) was 2.6 g/dL, the Glucose (Day 128) was 116 mg/dL and the Hematocrit (Day 128) was 38.1%. For the same compound, the Hemoglobin (Day 128) was 12.3 g/dL, the “Indirect Billirubin” value (Day 128) was 0 mg/dL and the Lipase (Day 128) was 415 U/L. For the same compound, the “Lymphocytes, (%)” value (Day 128) was 46%, the “Lymphocytes, absolute” value (Day 128) was 7774 and the MCH (Day 128) was 22.6. The MCHC (Day 128) was 32.2, the MCV (Day 128) was 70 and the “Monocytes, (%)” value (Day 128) was 5%. The “Monocytes, absolute” value (Day 128) was 845, the Na/K ratio (Day 128) was 31 and the “Neutrophils, (%)” value (Day 128) was 47%. The “Neutrophils, absolute” value (Day 128) was 7943, the Phosphorus (Day 128) was 3.1 mg/dL and the Platelet count (Day 128) was 508 10^3/microl. For the same compound, the Potassium (Day 128) was 4.8 mE/L, the RBC (Day 128) was 5.44 10^6/microl and the Sodium (Day 128) was 151 mE/L. For the same compound, the T4 (Day 128) was 1.1 µg/dL, the “Total Billirubin” value (Day 128) was 0.1 mg/dL and the “Total Protein” value (Day 128) was 5.6 g/dL. For the same compound, the WBC (Day 128) was 16.9 10^3/microl, the tCO2 (Day 128) was 19 mEq/L and the general condition (during the first treatment course) was “steady improvement”. The “progression of the disease” value (during the second treatment course, not to the degree of the first course) was “slowed down”.
